Assay results reported in US11229624B2, “FABP4 as a therapeutic target in skin diseases” (TICURE LTD., priority 2016, dated 2022).

Test system: IMQ-induced psoriasis in mice
Assay: Imiquimod-induced psoriasis model in mice, PASI scoring of back skin inflammation
Format: in vivo, Balb/c mice
Source text: As already explained, psoriasis is a chronic inflammatory skin disorder. It occurs when the immune system mistakes the skin cells as a pathogen, and sends out faulty signals that speed up the proliferation of skin cells. Imiquimod (IMQ) is a potent immune activator that induces and exacerbates psoriasis when applied topically. Daily application of IMQ on mouse back skin induces inflamed scaly skin lesions resembling plaque type psoriasis. IMQ-induced psoriasis in mice has been long used as a model for human psoriasis.
The efficacy of oral administration of a FABP4-inhibitor to treat psoriasis in the IMQ-induced model in mice was tested.
The test was carried out using Balb/c mice (Envigo RMS (Israel) Ltd), average (±SD) body weight at study initiation was 18.2±0.81 g. Animals were fed ad libitum a commercial rodent diet (Teklad Certified Global 18% Protein Diet, Harlan cat #2018SC). Animals had free access to sterilized and acidified drinking water (pH between 2.5 and 3.5).
The tests included six groups of 3-10 mice per group, as follows: • one naïve (no IMQ) group; • one Vehicle control group, the vehicle formulation being 10% 1-methyl-2-pyrrolidone and 5% Cremophor EL in water for injection (WFI); • one treated group that received Cortisone acetate as a positive control—one tablet (25 mg each, Rekah Pharm) was triturated with a mortar. The powder was dissolved in 2.5 ml WFI yielding 10 mg/ml. The compound was administrated per-os at 12.5 mg/kg BW (body weight) mouse of the compound once daily for six days starting the first day of IMQ application (Day 1); and • three treated groups that received BMS (i.e. Test Item) at three doses—5, 15 and 30 mg/kg. BMS powder (Cayman Chemical) was dissolved in ethanol to create a 30 mg/ml solution. This stock solution was diluted in the Vehicle to create three different concentrations 0.5, 1.5 and 3 mg/ml. A new aqueous solution was prepared in each day. BMS was administrated per-os once daily for six days starting the first day of IMQ application (Day 1).
IMQ-induction: A daily topical dose of 62.5 mg of commercially available IMQ cream (5%) (Aldara; 3M Pharmaceuticals) was applied to animals from all the groups except for the naïve group on the shaved back for six consecutive days, translated to a daily dose of 3.125 mg of the active compound.
Experiment conditions: All animals except for the naïve group received IMQ cream (Aldara™ 5% cream, #3 Pharmaceuticals) applied on the back skin daily for six consecutive days starting on Day 1 (˜60 mg/mouse). The Test Item, Vehicle and Cortisone acetate were administered per-os daily for 6 days. During the study morbidity and mortality, body weight (BW), clinical signs, and Psoriasis Area and Severity Index (PASI) scoring were performed and representative pictures were taken. The animals were sacrificed on Day 9.
Scoring was performed by a trained observer in a “blinded” way, i.e., being unaware of the treatment. To score the severity of inflammation of the back skin, the clinical PASI scoring was employed. Erythema, scaling, and thickening were scored independently on a scale from 0 to 4: 0, none; 1, slight; 2, moderate; 3, marked; 4, very marked. The cumulative score (erythema plus scaling plus thickening), PASI scoring, served as a measure of the severity of inflammation (scale 0-12).

[1] = 15 mg/kg per-os once daily for six days
[2] = BMS treated groups (5, 15 and 30 mg/kg per-os), Day 7

CCc1c(-c2ccccc2)c(-c2ccccc2)nn1-c1ccccc1-c1cccc(OCC(=O)O)c1 [BMS, 2-[[2′-(5-ethyl-3,4-diphenyl-1H-pyrazol-1-yl)[1,1′-biphenyl]-3-yl]oxy]-acetic acid]
erythema severity score, comparison of doses [1]: best results
scaling severity score, comparison of doses [1]: best results
skin thickness severity score, comparison of doses [1]: best results
severity of skin inflammation (PASI scoring) (BMS treated groups (5, 15 and 30 mg/kg per-os once daily for six days), Day 7): significant amelioration
erythema severity score [2]: significant amelioration
scaling severity score [2]: significant amelioration
skin thickness severity score [2]: significant amelioration
impact on the inflammation severity, comparison of doses (middle dose 15 mg/kg per-os once daily for six days): highest impact
